In PubChem BioAssay (NCI):
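The compound was tested at five concentrations on cells cultured in 96-well plates, with a 48-hour exposure period. At the GI50, growth is halved. At the TGI there is no net growth.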

Tests used:
Assay in all cases: DTP human tumour cell line panel, 48 h
UACC-257 melanoma = tested on: UACC-257 melanoma
U251 CNS = tested on: U251 CNS
SF-295 CNS = tested on: SF-295 CNS
SNB-19 CNS = tested on: SNB-19 CNS
SR leukemia = tested on: SR leukemia
MDA-MB-231 breast = tested on: MDA-MB-231 breast
CAKI-1 renal = tested on: CAKI-1 renal
RXF 393 renal = tested on: RXF 393 renal
SW-620 colon = tested on: SW-620 colon
HCT-116 colon = tested on: HCT-116 colon
KM12 colon = tested on: KM12 colon
786-0 renal = tested on: 786-0 renal
NCI-H23 lung = tested on: NCI-H23 lung
SK-MEL-28 melanoma = tested on: SK-MEL-28 melanoma
T-47D breast = tested on: T-47D breast
NCI-H522 lung = tested on: NCI-H522 lung
NCI/ADR-RES ovarian = tested on: NCI/ADR-RES ovarian
MALME-3M melanoma = tested on: MALME-3M melanoma
NCI-H226 lung = tested on: NCI-H226 lung
SF-268 CNS = tested on: SF-268 CNS
A498 renal = tested on: A498 renal
COLO 205 colon = tested on: COLO 205 colon
OVCAR-5 ovarian = tested on: OVCAR-5 ovarian
DU-145 prostate = tested on: DU-145 prostate
MDA-MB-435 = tested on: MDA-MB-435
UACC-62 melanoma = tested on: UACC-62 melanoma
NCI-H460 lung = tested on: NCI-H460 lung
M14 melanoma = tested on: M14 melanoma
SK-MEL-5 melanoma = tested on: SK-MEL-5 melanoma

Fc1ccc(-c2nnc3sc(-c4cc(Cl)cc(Cl)c4)nn23)cc1Cl
GI50 (UACC-257 melanoma): 38.2 µM
TGI (UACC-257 melanoma): > 100 µM
GI50 (U251 CNS): 17.3 µM
TGI (U251 CNS): 43.6 µM
GI50 (SF-295 CNS): 74.2 µM
TGI (SF-295 CNS): > 100 µM
GI50 (SNB-19 CNS): 32.3 µM
TGI (SNB-19 CNS): > 100 µM
GI50 (SR leukemia): 13.3 µM
TGI (SR leukemia): 43.8 µM
GI50 (MDA-MB-231 breast): 17.2 µM
TGI (MDA-MB-231 breast): 39.4 µM
GI50 (CAKI-1 renal): 33.5 µM
TGI (CAKI-1 renal): 96.4 µM
GI50 (RXF 393 renal): 1.51 µM
TGI (RXF 393 renal): 26.4 µM
GI50 (SW-620 colon): 45 µM
TGI (SW-620 colon): > 100 µM
GI50 (HCT-116 colon): 18.5 µM
TGI (HCT-116 colon): 44.2 µM
GI50 (KM12 colon): > 100 µM
TGI (KM12 colon): > 100 µM
GI50 (786-0 renal): 29.7 µM
TGI (786-0 renal): > 100 µM
GI50 (NCI-H23 lung): 37.2 µM
TGI (NCI-H23 lung): > 100 µM
GI50 (SK-MEL-28 melanoma): > 100 µM
TGI (SK-MEL-28 melanoma): > 100 µM
GI50 (T-47D breast): > 100 µM
TGI (T-47D breast): > 100 µM
GI50 (NCI-H522 lung): 49.7 µM
TGI (NCI-H522 lung): > 100 µM
GI50 (NCI/ADR-RES ovarian): 34.9 µM
TGI (NCI/ADR-RES ovarian): > 100 µM
GI50 (MALME-3M melanoma): 37.7 µM
TGI (MALME-3M melanoma): > 100 µM
GI50 (NCI-H226 lung): 34.3 µM
TGI (NCI-H226 lung): > 100 µM
GI50 (SF-268 CNS): 53 µM
TGI (SF-268 CNS): > 100 µM
GI50 (A498 renal): 29 µM
TGI (A498 renal): 77.9 µM
GI50 (COLO 205 colon): 56.6 µM
TGI (COLO 205 colon): > 100 µM
GI50 (OVCAR-5 ovarian): 70.1 µM
TGI (OVCAR-5 ovarian): > 100 µM
GI50 (DU-145 prostate): > 100 µM
TGI (DU-145 prostate): > 100 µM
GI50 (MDA-MB-435): > 100 µM
TGI (MDA-MB-435): > 100 µM
GI50 (UACC-62 melanoma): 31.1 µM
TGI (UACC-62 melanoma): > 100 µM
GI50 (NCI-H460 lung): 39.3 µM
TGI (NCI-H460 lung): > 100 µM
GI50 (M14 melanoma): 41.3 µM
TGI (M14 melanoma): > 100 µM
GI50 (SK-MEL-5 melanoma): > 100 µM
TGI (SK-MEL-5 melanoma): > 100 µM
